From patent publication US7294627B2, “Chemical compounds” (Eli Lilly and Company, priority 2001, dated 2007)

Molecular target: T1, human factor Xa (Homo sapiens, UniProt P00742)
T1 construct: 25 μL human factor Xa (32 nM in 0.03 M tris, 0.15 M NaCl, 1 mg/mL HSA); purchased Enzyme Research Laboratories (South Bend, Ind., USA)
Test: Enzyme inhibition assay (apparent Kass, chromogenic substrate hydrolysis)
Type: biochemical
Conditions: apparent association constant, human factor Xa 3.2 nM, BzIleGluGlyArgpNA substrate; 1/appKass=app Ki
Method: Human factor Xa and human thrombin are purchased from Enzyme Research Laboratories (South Bend, Ind., USA). Other proteases are from other commercial sources. Chromogenic para-nitroanilide peptide protease substrates are purchased from Midwest Biotech (Fishers, Ind., USA).
The binding affinities for human factor Xa are measured as apparent association constants (Kass) derived from protease inhibition kinetics as described previously.^a,b,c,d The apparent Kass values are obtained using automated (BioMek-1000) dilutions of inhibitors (Kass determinations are performed in triplicate at each of four-eight inhibitor concentrations) into 96-well plates and chromogenic substrate hydrolysis rates determined at 405 nm using a Thermomax plate reader from Molecular Devices (San Francisco). […] [Free Xa] and [bound Xa] are determined from linear standard curves on the same plate by use of SoftmaxPro software for each inhibitor concentration and apparent Kass calculated for each inhibitor concentration which produced hydrolysis inhibition between 20% and 80% of the control (3.2 nM factor Xa): apparent Kass=[E:I]/[Ef][If]=[Eb]/[Ef][I^o−I^b]. […] The variability of mean apparent Kass values determined at the single substrate concentration is +/−15%. […]

T1 sequence (P00742 235-488 limits assumed): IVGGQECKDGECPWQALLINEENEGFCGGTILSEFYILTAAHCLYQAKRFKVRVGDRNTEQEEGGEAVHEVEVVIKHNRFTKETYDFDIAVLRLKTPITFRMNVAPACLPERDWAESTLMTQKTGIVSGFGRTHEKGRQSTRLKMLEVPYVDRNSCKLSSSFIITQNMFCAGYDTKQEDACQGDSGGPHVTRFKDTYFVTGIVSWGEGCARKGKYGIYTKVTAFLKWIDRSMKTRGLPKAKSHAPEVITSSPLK
T1 sequence (P00742 41-179 partner limits assumed): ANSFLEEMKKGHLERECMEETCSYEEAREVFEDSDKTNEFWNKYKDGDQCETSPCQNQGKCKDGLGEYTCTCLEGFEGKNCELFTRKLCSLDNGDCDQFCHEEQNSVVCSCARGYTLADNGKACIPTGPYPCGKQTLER

COc1ccc(C(=O)NC(C(=O)N2CCC(CN(C)c3ccncc3)CC2)c2ccccc2Cl)cc1.Cl (racemic) [Example 7]
Kass: ~1.22e+08 L/mol
